Results from article PMC10313368 (The Journal of Clinical Investigation, 2023).
“And” between values parts separate entries of the source, which are not always exact repeats. Equal entries are not always repeated.

Legend:
HUVECs [1] = assay: mRNA angiogenesis array (TaqMan Array qPCR) in HUVECs; assay type: cell-based, human; parameters: ANG,RNASE4, array raw value (Figure 8B, well A10) / GAPDH, array raw value (Figure 8B, well A2) / EDIL3, array raw value (Figure 8B, well B2) / FGF1, array raw value (Figure 8B, well B4) / TIMP2, array raw value (Figure 8B, well E10) / SEMA3F, array raw value (Figure 8B, well E6) / CEACAM1, array raw value (Figure 8B, well F2) / LYVE1, array raw value (Figure 8B, well F6): scale not given here
Method: Angiogenesis array. Total RNA was isolated from MIO-MI cells (8 hours) and HUVECs (16 […]
cDNA was prepared with QuantiTect® Reverse Transcription Kit (Qiagen, Cat# 205311). RT-qPCR assay was performed with pre-configured TaqMan Array 96-Well FAST Plate for human angiogenic gene expression (Applied Biosystems, Inc) following the manufacture’s protocol. Each plate contains pre-defined genes including 18S, GAPDH and HPRT1 endogenous controls.
TaqMan Array plates were prepared by loading on each well 5 μl of cDNA sample (30 ng) with nuclease-free water and 5 μl of TaqMan™ Fast Advanced Master Mix (Applied Biosystem, Cat# […]
4444554). The reaction was performed using the QuantStudio™ 3 Flex Real‐Time PCR System as follows: 2 minutes at 50°C (stage 1); 10 minutes at 95°C (stage 2); 15 seconds at 95°C and 1 minutes at 60°C for 40 cycles (stage 3). The data were analyzed by using HPRT1 as endogenous […]
The clustering heatmaps were produced with “pheatmap” library in R with scale = row and clustering method = complete.
HUVEC cells, Euclidean distance was used to quantify the difference in qPCR screening. The Euclidean distance was calculated using “dist” function from R’s default stat library that measures the distance between 2 vectors (i.e., total qPCR expression values in control and treatment). In […]

HUVECs [2] = assay: qPCR of VEGF, ANGPTL4, ANGPT2, PTPRB, SERPINE1 mRNA in hypoxic HUVECs; assay type: cell-based, human; conditions: for Angptl4 mRNA / Vegfa mRNA: HUVEC 16HRS, Figure 8D; for Angptl4 mRNA / Vegfa mRNA / Angpt2 mRNA / Ptprb mRNA / Serpine1 mRNA: replicates; for Angpt2 mRNA / Ptprb mRNA / Serpine1 mRNA: HUVEC, Figure 8E
Method: MIO-M1, HUVECs, and ARPE19 cells were cultured in DMEM with 10% (vol/vol) FBS (Quality Biological) and 1% penicillin/streptomycin (Cellgro). A hypoxic chamber (Coy Laboratory Product Inc.; Two Glove Model) with 5% CO2, 94% N2, and 1% O2 gas concentration at 37°C was used to culture hypoxic cells. The control cells were cultured in an incubator maintained at 37°C, with 21% O2 and 5% CO2. […] Aflibercept was obtained from the Johns Hopkins University Pharmacy. […]
Reverse transcription and quantitative real-time PCR. Total RNA was isolated from cultured cells or retinas with PureLinkTM RNA Mini Kit (Invitrogen #12183025), and cDNA was prepared with MuLV Reverse Transcriptase (Applied Biosystems). Quantitative real-time PCR was performed with Power SYBR Green PCR Master Mix (Applied Biosystems) and MyiQ Real-Time PCR Detection System (Bio-Rad). Normalization was done using cyclophilin A for mouse tissue and human cell lines. Primers are listed in Supplemental Table 2. […]

[3] = HUVECs, hypoxia 16 hours, 32-134D 10 μM

## Brc1ccc2c(-c3csc(-c4c[nH]c5c(Br)cccc45)n3)c[nH]c2c1 [32-134D, 4-(6-bromo-1H-indol-3-yl)-2-(7-bromo-1H-indol-3-yl)thiazole]
HUVECs [1]; HUVEC, 1%O2+32-134D
  18S, array raw value (Figure 8B, well A1): 20.1818
  ADAMTS1, array raw value (Figure 8B, well D10): 29.7994
  AMOT, array raw value (Figure 8B, well D12): 39.0386
  ANG,RNASE4, array raw value (Figure 8B, well A10): 28.1406
  ANGPT1, array raw value (Figure 8B, well A11): 30.8384
  ANGPT2, array raw value (Figure 8B, well A12): 32.8047
  ANGPTL2, array raw value (Figure 8B, well E12): 30.2341
  ANGPTL4, array raw value (Figure 8B, well H5): 21.86
  CD44, array raw value (Figure 8B, well E1): 23.3811
  CDH5, array raw value (Figure 8B, well E2): 24.9237
  CEACAM1, array raw value (Figure 8B, well F2): 29.9396
  COL4A1, array raw value (Figure 8B, well G2): 30.6479
  COL4A2, array raw value (Figure 8B, well G3): 28.7346
  COL18A1, array raw value (Figure 8B, well G6): 29.7073
  CSF3, array raw value (Figure 8B, well H1): 33.4203
  CTGF, array raw value (Figure 8B, well C10): 23.3834
  CXCL2, array raw value (Figure 8B, well E3): 30.6168
  CXCL10, array raw value (Figure 8B, well D5): 36.21
  EDIL3, array raw value (Figure 8B, well B2): 26.4682
  EPHB2, array raw value (Figure 8B, well B3): 28.307
  FGF1, array raw value (Figure 8B, well B4): 29.8889
  FGF2, array raw value (Figure 8B, well B5): 30.0294
  FIGF, array raw value (Figure 8B, well F12): 33.3841
  FLT1, array raw value (Figure 8B, well E5): 30.21
  FN1, array raw value (Figure 8B, well G7): 28.5669
  FOXC2, array raw value (Figure 8B, well G1): 27.8513
  FST, array raw value (Figure 8B, well B7): 31.5936
  GAPDH, array raw value (Figure 8B, well A2): 20.3521
  GRN, array raw value (Figure 8B, well H2): 22.2393
  GUSB, array raw value (Figure 8B, well A4): 25.0498
  HEY1, array raw value (Figure 8B, well F3): 34.3049
  HPRT1, array raw value (Figure 8B, well A3): 25.0367
  HSPG2, array raw value (Figure 8B, well G5): 27.52
  IFNB1, array raw value (Figure 8B, well D3): 35.432
  IL8, array raw value (Figure 8B, well B9): 26.4133
  IL12A, array raw value (Figure 8B, well D6): 34.4259
  ITGA4, array raw value (Figure 8B, well D2): 28.3072
  ITGAV, array raw value (Figure 8B, well F4): 26.1181
  ITGB3, array raw value (Figure 8B, well H6): 25.3974
  KDR, array raw value (Figure 8B, well F10): 30.1984
  LYVE1, array raw value (Figure 8B, well F6): 34.6146
  MDK, array raw value (Figure 8B, well B11): 23.8862
  MMP2, array raw value (Figure 8B, well A9): 21.2904
  NRP1, array raw value (Figure 8B, well H10): 28.4453
  NRP2, array raw value (Figure 8B, well F9): 25.1088
  PDGFB, array raw value (Figure 8B, well C1): 28.0672
  PECAM1, array raw value (Figure 8B, well F5): 23.24
  PF4, array raw value (Figure 8B, well D8): 38.4479
  PLG, array raw value (Figure 8B, well A6): 36.8052
  PROX1, array raw value (Figure 8B, well H12): 31.6234
  PTN, array raw value (Figure 8B, well C2): 36.9532
  S1PR1, array raw value (Figure 8B, well H11): 25.2945
  SEMA3F, array raw value (Figure 8B, well E6): 31.8531
  SERPINB5, array raw value (Figure 8B, well E4): 36.9759
  SERPINC1, array raw value (Figure 8B, well A7): 34.8884
  SERPINF1, array raw value (Figure 8B, well D7): 37.5691
  TEK, array raw value (Figure 8B, well E7): 27.2772
  TGFA, array raw value (Figure 8B, well C4): 29.7382
  TGFB1, array raw value (Figure 8B, well C5): 24.01
  THBS1, array raw value (Figure 8B, well C12): 23.1291
  TIE1, array raw value (Figure 8B, well E8): 30.7653
  TIMP2, array raw value (Figure 8B, well E10): 25.4299
  TIMP3, array raw value (Figure 8B, well E11): 25.8838
  TNFSF15, array raw value (Figure 8B, well D1): 25.7168
  TNMD, array raw value (Figure 8B, well E9): 37.1045
  TYMP, array raw value (Figure 8B, well B12): 39.1978
  VASH1, array raw value (Figure 8B, well D9): 30.8647
  VEGFA, array raw value (Figure 8B, well C7): 30.4927
  VEGFB, array raw value (Figure 8B, well C8): 27.5522
  VEGFC, array raw value (Figure 8B, well C9): 27.3225
HUVECs [1]; HUVEC, Hy+32-134D, Normal = 1
  ANGPTL4 mRNA (angiogenesis array, Figure 8C): 35.2355
  COL4A1 mRNA (angiogenesis array, Figure 8C): 3.543
  COL4A2 mRNA (angiogenesis array, Figure 8C): 2.168
  CTGF mRNA (angiogenesis array, Figure 8C): 3.12
  EPHB2 mRNA (angiogenesis array, Figure 8C): 2.119
  HSPG2 mRNA (angiogenesis array, Figure 8C): 1.339
  ITGB3 mRNA (angiogenesis array, Figure 8C): 3.6621
  MMP2 mRNA (angiogenesis array, Figure 8C): 3.052
  PDGFB mRNA (angiogenesis array, Figure 8C): 2.63
  PROX1 mRNA (angiogenesis array, Figure 8C): 2.021
  TGFA mRNA (angiogenesis array, Figure 8C): 2.2277
  TGFB1 mRNA (angiogenesis array, Figure 8C): 1.578
  TNMD mRNA (angiogenesis array, Figure 8C): 1.388
  VEGFA mRNA (angiogenesis array, Figure 8C): 4.067
  VEGFC mRNA (angiogenesis array, Figure 8C): 3.879
HUVECs [1]; HUVECs, from 209 to 35
  reduction in the Euclidean distance between control and hypoxic cell angiogenic gene expression: 83%
HUVECs [2]; 1% O2+32-134D 1μM
  Angptl4 mRNA: 23.6548 and 19.8329 and 22.215
  Vegfa mRNA: 3.163 and 3.148 and 2.936
  Angpt2 mRNA: 1.029 and 1.541 and 1.067
  Ptprb mRNA: 1.641 and 1.627 and 1.638
  Serpine1 mRNA: 2.465 and 2.4817 and 2.486
HUVECs [2]; 1% O2+32-134D 10μM
  Angptl4 mRNA: 13.1074 and 12.3148 and 11.0174
  Vegfa mRNA: 2.892 and 2.5719 and 2.682
  Angpt2 mRNA: 1.092 and 1.046 and 0.8708
  Ptprb mRNA: 1.169 and 1.1917 and 1.0627
  Serpine1 mRNA: 2.072 and 2.145 and 2.576
HUVECs [2]; [3]
  hypoxia-increased ANGPT2 mRNA (in words): inhibited
  hypoxia-increased PTPRB mRNA (in words): inhibited
